From ChEMBL document CHEMBL1201862, “PubChem BioAssay data set” (2004)
Activity calls are given as the source filed them.

Columns and labels:
Vero = assay: cells; type: functional; conditions: Chlorocebus sabaeus
[1] = Luminescence Cell-Based Dose Retest to Confirm Inhibitors of Cancer Stem Cells. [Related pubchem assays (depositor defined):AID2717, AID2721]; type: functional; conditions: Homo sapiens
[2] = intracellular Trypanosoma cruzi inhibitors in host cells – cell-based, plate reader, cherry-pick samples, set 3, dose response (AID 651818); type: functional;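 note: compounds incubated with infected cells for about four days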
Beta Lactamase = Beta Lactamase (Pseudomonas aeruginosa, UniProt Q932Y6); assay: BLA reporter interference, concentration series – BLA reporter cells, FRET fluorescence, artefact control for TLR9-MyD88 binding inhibitor project, dose response (AID 588341); type: cell-based;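 note: cell based assay in CHO-K1 cells stably expressing beta-lactamase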
Beta Lactamase, sequence (Q932Y6 whole entry, the tested form may be a part): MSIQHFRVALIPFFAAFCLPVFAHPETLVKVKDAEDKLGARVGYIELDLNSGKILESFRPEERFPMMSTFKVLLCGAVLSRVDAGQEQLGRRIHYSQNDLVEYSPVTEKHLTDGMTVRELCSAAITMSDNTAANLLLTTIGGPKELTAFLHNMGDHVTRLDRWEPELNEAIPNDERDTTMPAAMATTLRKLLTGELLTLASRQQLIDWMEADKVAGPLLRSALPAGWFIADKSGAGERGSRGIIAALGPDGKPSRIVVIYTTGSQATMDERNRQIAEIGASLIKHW

CHO = CHO cell viability loss, potency – luminescence, cytotoxicity control for TLR9-MyD88 binding inhibitor project, dose response (AID 588339); type: functional, cell-based, hamster; conditions: Cricetulus griseus;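 note: CHO cells stably coexpressing TLR9 and MyD88 fusions from primary screen; compound exposure lasted 48 hours before viability readout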
[3] = target: T1, Mitochondrial peptide methionine sulfoxide reductase (Bos taurus, UniProt P54149); type: functional;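 note: absorbance read-out, biochemical high-throughput dose-response screen for MsrA inhibitors, confirmatory; recombinant bovine MsrA coupled to E. coli TrxB with NADPH and selenocystamine; potency is for inhibitors of MsrA activity on DMSO substrate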
T1 sequence (P54149 whole entry): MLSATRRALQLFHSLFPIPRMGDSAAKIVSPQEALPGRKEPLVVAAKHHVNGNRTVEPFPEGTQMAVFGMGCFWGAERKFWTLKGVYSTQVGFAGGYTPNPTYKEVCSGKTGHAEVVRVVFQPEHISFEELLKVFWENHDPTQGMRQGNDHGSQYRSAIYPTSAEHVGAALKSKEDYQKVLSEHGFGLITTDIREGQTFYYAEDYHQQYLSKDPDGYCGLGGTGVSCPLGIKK

Caspase-6 = target: T2, Caspase-6 (Homo sapiens, UniProt P55212); assay: inhibition of CASP6 peptide cleavage – biochemical, VEID-R110 fluorescence, cherry-pick, dose response (AID 720632)
T2 sequence (P55212 whole entry): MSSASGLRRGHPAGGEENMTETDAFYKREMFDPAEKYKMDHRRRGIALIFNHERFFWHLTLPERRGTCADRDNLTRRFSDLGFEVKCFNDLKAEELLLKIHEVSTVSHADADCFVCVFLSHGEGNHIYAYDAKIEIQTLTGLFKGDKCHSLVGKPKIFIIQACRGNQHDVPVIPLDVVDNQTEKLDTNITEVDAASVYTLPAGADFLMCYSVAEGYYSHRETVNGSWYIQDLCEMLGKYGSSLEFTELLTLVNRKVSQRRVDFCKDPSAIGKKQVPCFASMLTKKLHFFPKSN

Cytochrome P450 1A2 = target: T3, Cytochrome P450 1A2 (Homo sapiens, UniProt P05177);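 note: PubChem cytochrome P450 panel assay, CYP1A2 panel member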
T3 sequence (P05177 whole entry): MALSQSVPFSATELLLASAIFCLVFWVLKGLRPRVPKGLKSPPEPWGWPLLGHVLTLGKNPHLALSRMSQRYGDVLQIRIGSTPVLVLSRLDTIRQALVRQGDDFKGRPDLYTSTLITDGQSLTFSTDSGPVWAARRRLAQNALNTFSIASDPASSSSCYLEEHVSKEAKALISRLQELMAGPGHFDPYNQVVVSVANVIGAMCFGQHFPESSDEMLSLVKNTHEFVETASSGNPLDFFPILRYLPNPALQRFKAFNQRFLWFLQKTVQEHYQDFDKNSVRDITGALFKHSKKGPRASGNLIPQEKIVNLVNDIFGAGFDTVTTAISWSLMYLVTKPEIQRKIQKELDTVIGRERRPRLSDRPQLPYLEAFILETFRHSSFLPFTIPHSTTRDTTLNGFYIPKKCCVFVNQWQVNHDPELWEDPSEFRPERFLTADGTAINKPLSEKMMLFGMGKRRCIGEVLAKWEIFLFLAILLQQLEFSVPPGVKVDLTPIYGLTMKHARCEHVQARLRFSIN

Cytochrome P450 2C9 = Cytochrome P450 2C9 (Homo sapiens, UniProt P11712)
Cytochrome P450 2C9, sequence (P11712 whole entry): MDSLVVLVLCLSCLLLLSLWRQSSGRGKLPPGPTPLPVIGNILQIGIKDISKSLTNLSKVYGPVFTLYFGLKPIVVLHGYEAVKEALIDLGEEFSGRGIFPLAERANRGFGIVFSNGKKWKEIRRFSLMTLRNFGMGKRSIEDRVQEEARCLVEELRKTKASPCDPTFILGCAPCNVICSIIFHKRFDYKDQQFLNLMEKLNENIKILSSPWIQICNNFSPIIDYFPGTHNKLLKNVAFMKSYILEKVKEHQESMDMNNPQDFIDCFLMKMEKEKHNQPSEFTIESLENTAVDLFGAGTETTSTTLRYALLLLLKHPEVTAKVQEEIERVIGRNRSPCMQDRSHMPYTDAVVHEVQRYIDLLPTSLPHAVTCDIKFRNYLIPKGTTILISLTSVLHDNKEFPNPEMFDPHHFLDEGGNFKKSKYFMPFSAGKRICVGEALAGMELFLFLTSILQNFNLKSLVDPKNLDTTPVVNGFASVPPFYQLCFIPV

Cytochrome P450 2D6 = Cytochrome P450 2D6 (Homo sapiens, UniProt P10635);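 note: CYP2D6 member of a cytochrome P450 panel assay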
Cytochrome P450 2D6, sequence (P10635 whole entry, the tested form may be a part): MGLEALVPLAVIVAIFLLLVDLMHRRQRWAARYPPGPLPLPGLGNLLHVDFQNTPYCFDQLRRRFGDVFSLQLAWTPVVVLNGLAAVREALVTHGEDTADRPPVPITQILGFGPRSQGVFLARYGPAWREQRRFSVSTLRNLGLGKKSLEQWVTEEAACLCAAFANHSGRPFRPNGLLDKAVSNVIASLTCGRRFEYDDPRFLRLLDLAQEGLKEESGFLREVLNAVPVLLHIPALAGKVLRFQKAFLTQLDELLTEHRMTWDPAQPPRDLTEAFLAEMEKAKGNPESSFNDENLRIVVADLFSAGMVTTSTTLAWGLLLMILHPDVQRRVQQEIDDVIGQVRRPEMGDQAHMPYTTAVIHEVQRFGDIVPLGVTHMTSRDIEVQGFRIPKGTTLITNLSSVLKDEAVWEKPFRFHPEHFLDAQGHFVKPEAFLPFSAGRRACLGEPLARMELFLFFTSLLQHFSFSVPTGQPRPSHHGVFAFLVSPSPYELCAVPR

[4] = HIV-1 AD8 envelope cell-cell fusion blockers – cherry-pick, dose response (AID 652062); type: functional, cell-based;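 note: luciferase signal from cell-cell fusion driven by HIV-1 clade B AD8 Env; potency is for inhibitors of fusion seen as a drop in luminescence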
HEK293 [5] = assay: cells; conditions: Homo sapiens
[6] = blockers of HIV-1 ZM109 envelope-driven cell-cell fusion – HeLa effector, CEM target cells, luciferase, cherry-pick, dose response (AID 652058); type: functional, cell-based;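 note: luciferase signal from HIV-1 Env mediated cell-cell fusion of effector and target cells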
HEK293 [7] = assay: cells; conditions: Homo sapiens; remark: listed apart in the source
[8] = off-target signal loss in HeLa-CEM21 co-culture – HeLa F-luc CTL cells, cherry-picked, counter-screen for HIV-1 Env fusion inhibitor project, dose response (AID 652040); type: functional, cell-based;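 note: potency for signal decrease marking cytotoxic or nonspecific inhibition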
[9] = blockers of HIV-1 envelope-mediated cell-cell fusion – cherry-pick, dose response (AID 652057); type: functional, cell-based
[10] = target: T4, Orexin/Hypocretin receptor type 1 (Homo sapiens, UniProt O43613); assay: (§1) Fluorescence-based cell-based high throughput dose response assay for antagonists of the orexin 1 receptor (OX1R; HCRTR1). [Related pubchem assays (depositor defined):AID434989, AID435008, AID463079, AID485270, AID492963, AID492964, AID492965, AID493232, AID504717, AID504718]; type: functional
T4 sequence (O43613 whole entry): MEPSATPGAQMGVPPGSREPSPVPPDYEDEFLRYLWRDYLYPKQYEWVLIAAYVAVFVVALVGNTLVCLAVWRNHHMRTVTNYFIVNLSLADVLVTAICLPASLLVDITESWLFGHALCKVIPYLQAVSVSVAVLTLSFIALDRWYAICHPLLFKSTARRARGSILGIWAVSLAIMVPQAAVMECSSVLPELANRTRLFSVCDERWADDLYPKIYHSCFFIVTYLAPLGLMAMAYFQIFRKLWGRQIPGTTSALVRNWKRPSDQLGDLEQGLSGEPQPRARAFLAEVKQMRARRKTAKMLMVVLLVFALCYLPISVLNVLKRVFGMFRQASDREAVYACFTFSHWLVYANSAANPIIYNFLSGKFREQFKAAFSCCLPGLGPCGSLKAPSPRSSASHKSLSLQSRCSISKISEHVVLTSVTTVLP

CHO-K1 = assay: (§2) Counterscreen for antagonists of the orexin 1 receptor (OX1R; HCRTR1): Homogeneous time resolved fluorescence (HTRF)-based cell-based dose response assay to identify antagonists of the parental CHO-K1 cell line. [Related pubchem assays (depositor defined):AID434989, AID435008, AID463079, AID485270, AID492963, AID492964, AID492965, AID493232, AID504699, AID504701]; type: functional; conditions: Cricetulus griseus
[11] = target: T4, Orexin/Hypocretin receptor type 1; assay: as §1, with “Homogeneous Time Resolved Fluorescence (HTRF)-based” for “Fluorescence-based”; type: functional
[12] = as §2, with “Fluorescence-based” for “Homogeneous time resolved fluorescence (HTRF)-based”, “cell-based high throughput” for “cell-based”, “CHO” for “CHO-K1”; type: functional
[13] = target: T5, Adenosylmethionine-8-amino-7-oxononanoate aminotransferase (Mycobacterium tuberculosis, UniProt P9WQ81); assay: Mycobacterium tuberculosis BioA enzyme inhibitor Measured in Biochemical System Using Plate Reader - 2163-02_Inhibitor_Dose_CherryPick_Activity.; type: functional, Mycobacterium tuberculosis UT205
T5 sequence (P9WQ81 whole entry): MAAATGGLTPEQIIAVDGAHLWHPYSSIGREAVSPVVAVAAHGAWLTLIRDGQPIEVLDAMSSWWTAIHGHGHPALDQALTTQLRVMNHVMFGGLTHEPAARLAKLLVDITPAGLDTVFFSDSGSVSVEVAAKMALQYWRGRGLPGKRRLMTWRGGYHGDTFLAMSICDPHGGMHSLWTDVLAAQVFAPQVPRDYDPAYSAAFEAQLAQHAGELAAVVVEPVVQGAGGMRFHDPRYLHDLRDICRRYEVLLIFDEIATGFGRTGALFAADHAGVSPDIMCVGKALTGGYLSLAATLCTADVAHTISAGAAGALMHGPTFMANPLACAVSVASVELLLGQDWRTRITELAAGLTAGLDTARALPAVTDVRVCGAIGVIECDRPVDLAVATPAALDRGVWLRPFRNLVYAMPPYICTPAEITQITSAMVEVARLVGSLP

[14] = target: Nuclear receptor subfamily 5 group A member 2 (Homo sapiens, UniProt O00482); type: functional, cell-based;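 note: HEK293T cells transfected with LRH-1 and a StAR promoter luciferase reporter; potency for inhibitors that lower LRH-1 driven reporter light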
Nuclear receptor subfamily 5 group A member 2, sequence (O00482 whole entry): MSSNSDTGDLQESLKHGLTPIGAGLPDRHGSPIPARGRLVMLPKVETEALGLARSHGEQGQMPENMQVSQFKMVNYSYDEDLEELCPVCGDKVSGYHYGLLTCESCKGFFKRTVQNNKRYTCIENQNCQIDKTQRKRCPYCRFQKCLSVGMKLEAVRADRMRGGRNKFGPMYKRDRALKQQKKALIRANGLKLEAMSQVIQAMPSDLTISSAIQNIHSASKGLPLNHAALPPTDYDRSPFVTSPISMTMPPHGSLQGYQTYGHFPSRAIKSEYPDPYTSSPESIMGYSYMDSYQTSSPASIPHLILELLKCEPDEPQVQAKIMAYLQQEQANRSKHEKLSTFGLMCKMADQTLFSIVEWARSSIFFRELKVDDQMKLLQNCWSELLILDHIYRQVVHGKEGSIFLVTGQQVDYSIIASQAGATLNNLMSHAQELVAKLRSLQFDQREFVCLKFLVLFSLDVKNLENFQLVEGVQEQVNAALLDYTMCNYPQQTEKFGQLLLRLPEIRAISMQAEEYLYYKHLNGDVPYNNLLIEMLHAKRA

[15] = nonselective StAR promoter luciferase inhibitors – cell-based, luminescence, luciferase reporter, counter-screen for LRH-1 inverse agonist project, dose response (AID 651969); type: functional
Steroidogenic factor 1 = Steroidogenic factor 1 (Homo sapiens, UniProt Q13285); assay: Counterscreen for inverse agonists of the liver receptor homolog-1 (LRH-1; NR5A2): Luminescence-based cell-based high throughput dose response assay to identify inverse agonists of the Steroidogenic Factor 1 Nuclear Receptor (SF1; NR5A1).; type: functional
Steroidogenic factor 1, sequence (Q13285 whole entry): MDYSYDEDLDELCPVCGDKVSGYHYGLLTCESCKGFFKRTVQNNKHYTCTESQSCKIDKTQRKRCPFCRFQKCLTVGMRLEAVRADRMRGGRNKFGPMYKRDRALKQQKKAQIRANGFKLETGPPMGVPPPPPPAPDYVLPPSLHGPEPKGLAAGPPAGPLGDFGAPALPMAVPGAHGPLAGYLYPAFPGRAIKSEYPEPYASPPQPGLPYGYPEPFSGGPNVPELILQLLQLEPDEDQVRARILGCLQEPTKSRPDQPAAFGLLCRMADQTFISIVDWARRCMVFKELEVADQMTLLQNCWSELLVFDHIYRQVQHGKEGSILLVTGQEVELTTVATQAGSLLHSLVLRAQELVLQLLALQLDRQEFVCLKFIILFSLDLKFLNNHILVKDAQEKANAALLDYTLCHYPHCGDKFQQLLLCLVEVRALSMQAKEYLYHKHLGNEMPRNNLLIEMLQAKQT

SMILES: C=CCC[C@@H](Cc1ccc(F)cc1)C(=O)OC[C@@H](Cc1c[nH]c2ccccc12)NC(=O)[C@@H](CC=C)CC(=O)N(CCO)Cc1ccccc1
- CC50 (Vero): 15.5 µM (active)
- AC50 [1]: 5.96 µM (active)

SMILES: C[C@H](CO)N1C[C@H](C)[C@H](CN(C)Cc2ccc(C(=O)Nc3ccccc3N)cc2)Oc2c(NS(=O)(=O)c3cccs3)cccc2C1=O
- AC50 [2]: 1.87 µM (active)

SMILES: Cc1cccc(C)c1-n1c(C)cc(/C=N\Nc2ccc([N+](=O)[O-])cn2)c1C
- IC50 (Beta Lactamase): 4.04 µM (active)
- IC50 (CHO): > 49.8 µM (inactive)

SMILES: Cn1cnc([N+](=O)[O-])c1S(=O)(=O)Nc1ccccc1
- IC50 [3]: 52.8 µM (inactive)
- AC50 (Caspase-6): 9.66 µM (active)

SMILES: S=C1SCN(Cc2ccccn2)CN1Cc1ccco1
- AC50 (Cytochrome P450 1A2): 11.2 µM (inconclusive)
- AC50 (Cytochrome P450 2C9): 14.1 µM (inconclusive)
- CC50 (Vero): 24 µM (active)
- AC50 (Cytochrome P450 2D6): 17.8 µM (inconclusive)

SMILES: COCCCN(C(=S)NC(=O)C12CC3CC(CC(C3)C1)C2)c1c(N)n(Cc2ccccc2)c(=O)[nH]c1=O
- AC50 [4]: 4.29 µM (active)
- EC50 (HEK293 [5]): > 59.7 µM (inactive)
- AC50 [6]: 2.64 µM (active)
- EC50 (HEK293 [7]): > 59.7 µM (inactive)
- AC50 [8]: 1.92 µM (active)
- AC50 [9]: 1.97 µM (active)

SMILES: CCCCNc1c(-c2ccc(-c3ccc(OC)cc3)c(OC)c2)nc2ccccn12
- CC50 (Vero): > 25 µM (active)

SMILES: O=C(NCCN1C(=O)S/C(=C\c2ccccc2)C1=O)c1cc(S(=O)(=O)N2CCOCC2)c(Cl)cc1Cl
- IC50 [10]: 10.5 µM (inactive)
- IC50 (CHO-K1): > 66.2 µM (inactive)
- IC50 [11]: 20.3 µM (inactive)
- IC50 [12]: 21.3 µM (inactive)

SMILES: C=C(C)n1c(=O)n(Cc2ccccc2C)c2ccccc21
- AC50 [13]: 1.32 µM (active)

SMILES: CCOc1ccc(NC(=O)COC(=O)C2CCC(=O)N2)c([N+](=O)[O-])c1 (configuration not stated)
- IC50 [14]: 35.8 µM (inactive)
- IC50 [15]: 35.8 µM (inactive)
- IC50 (Steroidogenic factor 1): 35.8 µM (inactive)

SMILES: COC(=O)C1C(=O)C=C(Nc2ccc(F)cc2)CC1c1ccc(OC)cc1 (configuration not stated)
- AC50 [13]: 1.01 µM (active)
